Assay results as given in ChEMBL document CHEMBL4507291 (2021).

Assays:
[1] = biological target: Melanocortin receptor 5 (Homo sapiens) (UniProt P33032); test: Inhibition of Melanocortin MC5 at 10 µM in the Eurofins-Panlabs radioligand binding assay (Eurofins_assay_251400); set-up: ligand concentration 0.035 nM; settings: Compound concentration 10.0 uM
[2] = biological target: T1, Ephrin type-B receptor 3 (Homo sapiens) (UniProt P54753); test: EPHB3 Kinase screen; settings: Compound concentration 1.0 uM
T1 sequence (whole entry): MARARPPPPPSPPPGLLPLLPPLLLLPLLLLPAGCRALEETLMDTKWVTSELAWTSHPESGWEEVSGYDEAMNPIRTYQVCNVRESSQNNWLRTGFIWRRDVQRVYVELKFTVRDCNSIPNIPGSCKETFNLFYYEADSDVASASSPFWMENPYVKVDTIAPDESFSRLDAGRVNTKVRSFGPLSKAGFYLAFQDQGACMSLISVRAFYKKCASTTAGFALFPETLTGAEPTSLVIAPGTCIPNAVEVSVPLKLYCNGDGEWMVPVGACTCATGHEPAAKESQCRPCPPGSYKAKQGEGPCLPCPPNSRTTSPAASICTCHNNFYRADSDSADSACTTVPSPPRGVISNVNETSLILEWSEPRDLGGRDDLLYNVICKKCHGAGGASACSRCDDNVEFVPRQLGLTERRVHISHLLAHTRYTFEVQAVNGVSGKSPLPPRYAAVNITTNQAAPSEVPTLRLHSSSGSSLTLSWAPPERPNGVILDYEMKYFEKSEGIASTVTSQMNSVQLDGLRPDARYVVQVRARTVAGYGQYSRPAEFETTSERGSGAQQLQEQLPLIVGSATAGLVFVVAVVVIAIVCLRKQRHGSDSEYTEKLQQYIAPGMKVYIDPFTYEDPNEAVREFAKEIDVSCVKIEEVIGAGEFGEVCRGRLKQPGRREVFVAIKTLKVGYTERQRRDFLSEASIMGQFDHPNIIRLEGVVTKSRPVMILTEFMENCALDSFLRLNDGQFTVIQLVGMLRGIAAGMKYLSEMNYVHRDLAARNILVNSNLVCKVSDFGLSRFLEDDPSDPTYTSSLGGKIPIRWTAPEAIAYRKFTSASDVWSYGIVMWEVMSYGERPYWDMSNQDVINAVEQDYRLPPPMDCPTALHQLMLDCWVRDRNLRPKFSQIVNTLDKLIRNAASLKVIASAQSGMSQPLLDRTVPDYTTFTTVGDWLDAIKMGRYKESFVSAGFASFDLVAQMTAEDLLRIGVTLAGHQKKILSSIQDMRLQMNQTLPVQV

[3] = biological target: Phosphatidylinositol 4-phosphate 3-kinase C2 domain-containing subunit beta (Homo sapiens) (UniProt O00750); test: PIK3C2B (PI3K-C2 beta) Kinase screen; settings: Compound concentration 1.0 uM
[4] = biological target: Mitogen-activated protein kinase 14 (Homo sapiens) (UniProt Q16539); test: Inhibition of Protein Serine/Threonine Kinase, MAPK14 (p38α) at 10 µM in the Eurofins-Panlabs enzyme assay (Eurofins_assay_176610); set-up: substrate with concentration; settings: Compound concentration 10.0 uM
Chain of Mitogen-activated protein kinase 14 (Homo sapiens) (Q16539 whole entry): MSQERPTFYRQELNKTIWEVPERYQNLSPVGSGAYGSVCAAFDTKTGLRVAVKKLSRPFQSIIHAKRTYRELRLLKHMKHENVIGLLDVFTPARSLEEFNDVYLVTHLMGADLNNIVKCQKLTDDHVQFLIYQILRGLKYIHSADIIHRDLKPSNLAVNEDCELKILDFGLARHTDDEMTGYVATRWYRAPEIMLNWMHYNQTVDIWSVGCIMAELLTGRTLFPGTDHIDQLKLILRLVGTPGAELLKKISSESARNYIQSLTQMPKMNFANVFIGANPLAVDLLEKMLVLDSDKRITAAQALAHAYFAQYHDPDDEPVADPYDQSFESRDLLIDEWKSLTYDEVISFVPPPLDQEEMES

[5] = biological target: T2, Tyrosine-protein kinase receptor TYRO3 (Homo sapiens) (UniProt Q06418); test: TYRO3 (RSE) Kinase screen; settings: Compound concentration 1.0 uM
T2 sequence (whole entry): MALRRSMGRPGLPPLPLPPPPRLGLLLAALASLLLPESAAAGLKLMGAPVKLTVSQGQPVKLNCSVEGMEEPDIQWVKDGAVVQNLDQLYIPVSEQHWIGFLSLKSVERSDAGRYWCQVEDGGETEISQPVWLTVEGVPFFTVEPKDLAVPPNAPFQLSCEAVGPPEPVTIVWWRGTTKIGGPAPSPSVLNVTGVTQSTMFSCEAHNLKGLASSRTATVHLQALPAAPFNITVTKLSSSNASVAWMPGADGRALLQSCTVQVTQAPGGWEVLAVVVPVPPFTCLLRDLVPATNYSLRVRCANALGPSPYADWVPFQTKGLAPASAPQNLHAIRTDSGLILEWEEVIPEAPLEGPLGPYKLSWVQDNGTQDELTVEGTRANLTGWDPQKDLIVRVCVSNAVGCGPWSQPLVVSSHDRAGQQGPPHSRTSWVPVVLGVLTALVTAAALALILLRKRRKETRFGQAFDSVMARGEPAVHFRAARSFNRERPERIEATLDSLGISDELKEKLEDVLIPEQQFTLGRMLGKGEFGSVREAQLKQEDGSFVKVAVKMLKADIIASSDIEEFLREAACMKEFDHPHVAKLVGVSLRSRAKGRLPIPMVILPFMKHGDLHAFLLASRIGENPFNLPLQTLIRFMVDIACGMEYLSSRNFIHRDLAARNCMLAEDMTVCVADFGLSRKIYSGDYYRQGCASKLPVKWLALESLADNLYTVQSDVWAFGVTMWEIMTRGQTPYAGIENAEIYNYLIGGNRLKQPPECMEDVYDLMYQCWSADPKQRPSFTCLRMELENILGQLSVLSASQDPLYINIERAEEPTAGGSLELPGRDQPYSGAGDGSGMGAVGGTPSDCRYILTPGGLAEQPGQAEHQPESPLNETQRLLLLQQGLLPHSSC

[6] = biological target: Focal adhesion kinase 1 (Homo sapiens) (UniProt Q05397); test: PTK2 (FAK) Kinase screen; settings: Compound concentration 1.0 uM
Chain of Focal adhesion kinase 1 (Homo sapiens) (Q05397 2-1052 limits assumed): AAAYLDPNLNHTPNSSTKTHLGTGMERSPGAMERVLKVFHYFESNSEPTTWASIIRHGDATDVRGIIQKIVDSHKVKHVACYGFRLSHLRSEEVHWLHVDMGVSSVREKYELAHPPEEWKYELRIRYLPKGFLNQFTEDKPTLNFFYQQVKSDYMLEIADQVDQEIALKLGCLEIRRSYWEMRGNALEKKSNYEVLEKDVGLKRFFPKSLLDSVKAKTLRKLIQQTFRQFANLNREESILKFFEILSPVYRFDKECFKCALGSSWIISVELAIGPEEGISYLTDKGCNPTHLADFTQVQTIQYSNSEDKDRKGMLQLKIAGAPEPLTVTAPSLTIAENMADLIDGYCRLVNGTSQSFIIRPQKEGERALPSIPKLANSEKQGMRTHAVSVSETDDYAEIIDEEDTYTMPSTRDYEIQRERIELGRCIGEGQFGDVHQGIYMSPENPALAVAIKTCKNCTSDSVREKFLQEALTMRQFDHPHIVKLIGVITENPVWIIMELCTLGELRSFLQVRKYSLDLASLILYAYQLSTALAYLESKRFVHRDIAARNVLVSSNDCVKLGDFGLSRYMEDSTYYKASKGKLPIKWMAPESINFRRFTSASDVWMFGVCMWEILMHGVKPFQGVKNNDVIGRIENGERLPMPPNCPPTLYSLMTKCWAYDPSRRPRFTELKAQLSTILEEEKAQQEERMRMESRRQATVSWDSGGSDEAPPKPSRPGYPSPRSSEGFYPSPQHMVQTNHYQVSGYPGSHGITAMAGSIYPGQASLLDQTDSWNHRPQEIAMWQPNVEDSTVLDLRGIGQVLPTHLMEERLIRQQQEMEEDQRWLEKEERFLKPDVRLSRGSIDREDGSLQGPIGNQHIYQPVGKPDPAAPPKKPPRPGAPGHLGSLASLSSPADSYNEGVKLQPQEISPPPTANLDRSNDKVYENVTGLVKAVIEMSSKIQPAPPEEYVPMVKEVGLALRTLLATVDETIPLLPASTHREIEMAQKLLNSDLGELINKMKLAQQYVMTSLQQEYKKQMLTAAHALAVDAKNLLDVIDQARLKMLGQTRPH

Rattus norvegicus = species on record: Rattus norvegicus; settings: Compound concentration 10.0 uM
[7] = biological target: AMPK alpha2/beta1/gamma1 (Homo sapiens) (UniProt P54646+P54619+Q9Y478); test: AMPK A2/B1/G1 Kinase screen; assay type: protein-complex assay; settings: Compound concentration 1.0 uM
Chain of AMPK alpha2/beta1/gamma1 (Homo sapiens) (P54619 whole entry partner): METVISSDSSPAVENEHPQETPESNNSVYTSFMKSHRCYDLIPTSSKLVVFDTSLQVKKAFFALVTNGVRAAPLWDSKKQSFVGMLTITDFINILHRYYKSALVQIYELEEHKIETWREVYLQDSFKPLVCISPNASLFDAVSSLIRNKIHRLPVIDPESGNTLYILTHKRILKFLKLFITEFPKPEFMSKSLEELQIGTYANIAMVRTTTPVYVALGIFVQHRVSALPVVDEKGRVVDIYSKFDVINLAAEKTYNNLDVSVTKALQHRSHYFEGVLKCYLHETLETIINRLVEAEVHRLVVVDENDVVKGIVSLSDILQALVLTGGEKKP
Chain of AMPK alpha2/beta1/gamma1 (Homo sapiens) (P54646 whole entry): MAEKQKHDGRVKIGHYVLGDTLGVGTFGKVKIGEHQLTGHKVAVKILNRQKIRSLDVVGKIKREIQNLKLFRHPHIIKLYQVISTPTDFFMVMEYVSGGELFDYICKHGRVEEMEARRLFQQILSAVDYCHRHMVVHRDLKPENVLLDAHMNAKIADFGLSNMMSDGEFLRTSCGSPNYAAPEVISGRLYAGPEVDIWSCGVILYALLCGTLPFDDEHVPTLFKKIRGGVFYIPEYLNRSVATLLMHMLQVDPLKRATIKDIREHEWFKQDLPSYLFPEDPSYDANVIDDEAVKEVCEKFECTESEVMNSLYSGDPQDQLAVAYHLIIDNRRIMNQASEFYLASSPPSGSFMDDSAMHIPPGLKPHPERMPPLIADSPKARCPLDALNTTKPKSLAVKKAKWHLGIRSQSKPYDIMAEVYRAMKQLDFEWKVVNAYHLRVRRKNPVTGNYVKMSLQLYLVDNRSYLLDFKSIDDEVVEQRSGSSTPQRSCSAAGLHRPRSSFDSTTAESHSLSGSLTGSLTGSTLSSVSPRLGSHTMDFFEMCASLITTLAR
Chain of AMPK alpha2/beta1/gamma1 (Homo sapiens) (Q9Y478 2-270 partner limits assumed): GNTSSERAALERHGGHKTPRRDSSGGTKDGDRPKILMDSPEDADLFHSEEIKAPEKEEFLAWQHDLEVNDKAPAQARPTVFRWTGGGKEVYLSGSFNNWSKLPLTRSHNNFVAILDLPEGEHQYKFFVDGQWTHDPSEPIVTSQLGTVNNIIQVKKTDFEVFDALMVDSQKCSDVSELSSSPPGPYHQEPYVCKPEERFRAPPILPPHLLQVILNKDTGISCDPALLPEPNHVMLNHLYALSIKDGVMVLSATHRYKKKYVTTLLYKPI

Caspase-8 (Homo sapiens) = Caspase-8 (Homo sapiens) (UniProt Q14790); test: Peptidase, CASP8 (Caspase 8) Eurofins-Panlabs enzyme assay; settings: Compound concentration 10.0 uM
Chain of Caspase-8 (Homo sapiens) (Q14790 217-374 limits assumed): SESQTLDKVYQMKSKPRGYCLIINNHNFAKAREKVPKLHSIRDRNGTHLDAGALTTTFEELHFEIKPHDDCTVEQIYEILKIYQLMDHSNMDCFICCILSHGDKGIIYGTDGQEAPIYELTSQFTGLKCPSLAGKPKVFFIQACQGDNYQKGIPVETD
Chain of Caspase-8 (Homo sapiens) (Q14790 385-479 limits assumed): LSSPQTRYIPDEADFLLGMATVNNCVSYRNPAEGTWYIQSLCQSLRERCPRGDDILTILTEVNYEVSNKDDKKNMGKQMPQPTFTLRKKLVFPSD

[8] = biological target: Sodium-dependent dopamine transporter (Homo sapiens) (UniProt Q01959); settings: Compound concentration 10.0 uM
Chain of Sodium-dependent dopamine transporter (Homo sapiens) (Q01959 whole entry): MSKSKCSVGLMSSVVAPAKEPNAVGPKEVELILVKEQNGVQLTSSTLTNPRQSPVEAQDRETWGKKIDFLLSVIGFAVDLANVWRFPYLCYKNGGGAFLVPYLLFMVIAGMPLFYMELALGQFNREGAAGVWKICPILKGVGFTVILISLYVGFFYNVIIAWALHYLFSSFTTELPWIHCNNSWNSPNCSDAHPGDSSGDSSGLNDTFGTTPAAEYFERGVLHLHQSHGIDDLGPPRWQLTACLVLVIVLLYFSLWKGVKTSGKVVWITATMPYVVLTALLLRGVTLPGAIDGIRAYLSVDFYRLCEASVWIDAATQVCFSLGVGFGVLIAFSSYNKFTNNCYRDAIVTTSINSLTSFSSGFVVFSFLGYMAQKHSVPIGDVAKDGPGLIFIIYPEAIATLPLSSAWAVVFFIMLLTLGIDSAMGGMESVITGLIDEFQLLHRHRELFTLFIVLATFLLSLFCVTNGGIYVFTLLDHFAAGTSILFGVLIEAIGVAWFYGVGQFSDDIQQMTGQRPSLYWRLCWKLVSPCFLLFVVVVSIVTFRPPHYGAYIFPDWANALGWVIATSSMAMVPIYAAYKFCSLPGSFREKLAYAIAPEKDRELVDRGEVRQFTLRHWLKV

Measured: inhibition

Chain of Melanocortin receptor 5 (Homo sapiens) (P33032 whole entry): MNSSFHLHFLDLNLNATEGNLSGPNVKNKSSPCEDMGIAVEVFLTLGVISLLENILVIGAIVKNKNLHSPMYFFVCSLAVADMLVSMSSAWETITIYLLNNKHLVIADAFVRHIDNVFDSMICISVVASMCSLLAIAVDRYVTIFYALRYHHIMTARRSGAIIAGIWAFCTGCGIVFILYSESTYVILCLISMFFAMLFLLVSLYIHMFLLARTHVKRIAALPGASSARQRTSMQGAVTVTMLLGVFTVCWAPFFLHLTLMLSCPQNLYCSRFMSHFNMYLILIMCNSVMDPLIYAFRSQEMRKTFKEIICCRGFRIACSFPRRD

C[C@@H]1CN(c2cc(-c3n[nH]c4ccc(OC5(C)CC5)cc34)ncn2)C[C@H](C)O1 [MLi-2]
inactive: [1] -3% | [2] 9.87% | [3] -3.26% | [4] 19% | [5] 6.06% | [6] 14.2% | Rattus norvegicus 0% | [7] 5.68% | Caspase-8 (Homo sapiens) 7% | [8] 16%
